Results: patent US12448388B2, “PRMT5 inhibitors and uses thereof” (Gilead Sciences, Inc., priority 2023, dated 2025)
Where two headings read alike, the source gives them in different places.

Columns and labels:
[1] = test system: HCT116 MTAP-deleted cell lines; test: Cell viability assay (CellTiter-Glo, 7 days), HCT116 MTAP-deleted; format: cell-based; conditions: Homo sapiens, HCT-116, HCT116 MTAP-deleted, class symbols, read-out: CC50
Outline: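 Each PRMT5 inhibitor was tested as a dose response alongside tool compounds on the same plate. Incubation ran 7 days at 37 °C under 5% CO2, after which CellTiter-Glo luminescence was recorded and CC50 calculated.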

[2] = test system: Symmetric Di-methyl Arginine (SDMA) signal (PRMT5 inhibition) in HCT116 MTAP-deleted cells; test: Symmetric di-methyl arginine image-based high content screen assay (SDMA assay), HCT116 MTAP-deleted; format: cell-based; conditions: for EC50: Homo sapiens, HCT-116, HCT116 MTAP-deleted, class symbols
Protocol: Symmetric di-methyl arginine image-based high content screen assay (SDMA assay) was performed in HCT116 WT and HCT116 MTAP-deleted cell lines to measure Symmetric Di-methyl Arginine (SDMA) signal reduction after selective PRMT5 inhibition in the MTAP-deleted cells. Control compounds were analyzed in parallel each time for quality control.
Briefly, the same compound plates were generated as mentioned in the previous section of Cell viability assay on Day −1. On Day 0, 800 HCT WT or HCT116 MTAP-deleted cell were seeded in compound-containing 384 well plates (50 μl per well) in RPMI 1640 media supplemented with 10% heat inactivated fetal bovine serum, Glutamax and penicillin streptomycin using EL460 liquid dispenser 5 μl cassette (BioTek, part no. 7170011). After equilibrating the plate at room temperature, the cells were incubated for 3 days inside the sealed incubator set at 37° C. with 90% humidity and 5% C02.
On Day 3, the cells were fixed by adding 45 μl of 8% neutralized formalin solution to each well using EL460 liquid dispenser 5 μl cassette and the cells were incubated for 30 minutes at room temperature. The formalin solution was washed off with […] phosphate buffered saline (dPBS), the 0.1% Triton X-100 solution in dPBS was used to permeabilize the cells for 15 minutes at room temperature. The triton solution was aspirated, 50 μl of Odyssey Blocking buffer +0.05% Tween20 was added and the plate was incubated at room temperature for 30 minutes.
The blocking solution was removed, a 20 μl of SDMA antibody (Cell Signaling Technology, Cat no. 13222) diluted 1:500 in Odyssey Blocking buffer +0.05% Tween20 was added and the plate was incubated at 4° C. overnight. Next day, the primary SDME antibody solution was washed from each well three times with 0.05% Tween20 in dPBS (PBST).
A 30 μl of the secondary antibody, a Goat anti-Rabbit Alexa Fluor Plus 488 (Invitrogen, Cat no. PIA32731) was diluted 1:500 in Odyssey Blocking buffer +0.05% Tween20 and the plate was incubated for 1.5 hours in dark at room temperature. The secondary antibody solution was removed, 30 μl of 5 mg/ml DAPI solution diluted 1:2000 in dPBS was added and the plate was incubated for 30 minutes in dark at room temperature. The DAPI solution was aspirated and the wells were washed six times with dPBS.
The SDMA signal and DAPI signal per cell were counted using a Cellomics CX7 LZR instrument reading under 488 and 405 nm laser, respectively. The SDMA signal was quantified by mean average intensity per cell from Alexa Fluor Plus 488 after the cell was defined with DAPI. The EC50 values for each compound after 3 days of treatment were calculated using 4 parameter non-linear logistical curve fit.
For the SDMA assay i.e. EC50 shown in Table 3A: A: EC50≤1 nM, B: 1 nM<EC50≤5 nM, C: EC50>5 nM.

[3] = HCT116 WT versus HCT116 MTAP-deleted
[4] = HCT116 WT vs HCT116 MTAP-deleted

Structure (SMILES)	CC50 ([1]; cell viability) [nM]	EC50 selectivity [2, 3]	EC50 [2] [nM]	CC50 ([1]; cell viability assay) [nM]	EC50 selectivity [2, 4]
CN(C(=O)c1cc2c(cc1F)nc(N)c1cncn12)[C@@H]1COc2nc(C(F)(F)F)ccc21 [Ff-22, (S)-4-amino-7-fluoro-N-methyl-N-(6-(trifluoromethyl)-2,3-dihydrofuro[2,3-b]pyridin-3-yl)imidazo[1,5-a]quinoxaline-8-carboxamide]	< 100	587	1 to 5		
Nc1nc2cc(F)c(C(=O)N(Cc3ccc(C(F)(F)F)cc3F)C(CO)CO)cc2n2cncc12 [Ff-27, 4-amino-7-fluoro-N-[[2-fluoro-4-(trifluoromethyl)phenyl]methyl]-N-[2-hydroxy-1-(hydroxymethyl)ethyl]imidazo[1,5-a]quinoxaline-8-carboxamide]	> 1000	51	> 5		
C[C@@H]1CN(C(=O)c2cc3c(cc2F)nc(N)c2cncn23)[C@H]2c3ccc(Br)c(F)c3C[C@H]2O1 (single isomer, unassigned) [Ff-163]	< 100	64	1 to 5		
Cc1ncn2c1c(N)nc1cnc(C(=O)N3CCC4(CC4)[C@@H]4Oc5cc(C(F)(F)F)ccc5[C@@H]43)cc12 [Ff-678, (4-amino-3-methylimidazo[1,5-a]pyrido[3,4-e]pyrazin-8-yl)((4aS,9bS)-7-(trifluoromethyl)-2,3,4a,9b-tetrahydro-1H-spiro[benzofuro[3,2-b]pyridine-4,1′-cyclopropan]-1-yl)methanone]			1 to 5	< 100	263
CC(=O)N(C)N(Cc1ccc(C(F)(F)F)cc1F)C(=O)c1ccc2nc(N)c3c(C)nc(C)n3c2c1 [Fa-7, N′-acetyl-4-amino-N-(2-fluoro-4-(trifluoromethyl)benzyl)-N′,1,3-trimethylimidazo[1,5-a]quinoxaline-8-carbohydrazide]	100 to 1000	159	> 5		
CCN(C(=O)c1cc2c(cc1F)nc(N)c1cncn12)[C@@H]1COc2cc(C(F)(F)F)ccc21 [Ff-9, (S)-4-amino-N-ethyl-7-fluoro-N-(6-(trifluoromethyl)-2,3-dihydrobenzofuran-3-yl)imidazo[1,5-a]quinoxaline-8-carboxamide]	< 100	106	≤ 1		
CN(C(=O)c1cc2c(cc1F)nc(N)c1cncn12)[C@@H]1COc2cc(-c3cnn(C(F)F)c3)ccc21 [Ff-213, (S)-4-amino-N-(6-(1-(difluoromethyl)-1H-pyrazol-4-yl)-2,3-dihydrobenzofuran-3-yl)-7-fluoro-N-methylimidazo[1,5-a]quinoxaline-8-carboxamide]	< 100	153	1 to 5		
CN(C(=O)c1ccc2nc(N)c3cncn3c2c1)[C@@H]1COc2cc(C3CC3)ccc21 [Ff-548, (S)-4-amino-N-(6-cyclopropyl-2,3-dihydrobenzofuran-3-yl)-N-methylimidazo[1,5-a]quinoxaline-8-carboxamide]			1 to 5	100 to 1000	102
Nc1nc2cc(F)c(C(=O)N3C[C@H](F)CC4Oc5cc(OC(F)(F)F)ccc5C43)cc2n2cncc12 (mixture of isomers) [Fg-57, rac-(4-amino-7-fluoroimidazo[1,5-a]quinoxalin-8-yl)((3R,4aS,9bS)-3-fluoro-7-(trifluoromethoxy)-3,4,4a,9b-tetrahydrobenzofuro[3,2-b]pyridin-1(2H)-yl)methanone]			≤ 1	< 100	137
Nc1nc2cc(F)c(C(=O)N3CCC[C@@H]4OCc5cc(OC(F)F)ccc5[C@@H]43)cc2n2cncc12 (single isomer, unassigned) [Ff-392]			≤ 1	< 100	68
Cc1ncc2c(N)nc3ccc(C(=O)N(C)[C@@H]4COc5nc(C(F)(F)F)ccc54)cc3n12 [Ff-21, (S)-4-amino-N,1-dimethyl-N-(6-(trifluoromethyl)-2,3-dihydrofuro[2,3-b]pyridin-3-yl)imidazo[1,5-a]quinoxaline-8-carboxamide]	100 to 1000	874	1 to 5		
CN(C(=O)c1cc2c(cc1F)nc(N)c1cncn12)[C@@H]1COc2cc(N3CCOCC3)ccc21 [Ff-144, (S)-4-amino-7-fluoro-N-methyl-N-(6-morpholino-2,3-dihydrobenzofuran-3-yl)imidazo[1,5-a]quinoxaline-8-carboxamide]	< 100	157	1 to 5		
Nc1nc2ccc(C(=O)N3C[C@@H](F)C[C@@H]4Oc5cc(OC(F)(F)F)ccc5[C@@H]43)cc2n2cncc12 [Ff-667, (4-aminoimidazo[1,5-a]quinoxalin-8-yl)((3S,4aS,9bS)-3-fluoro-7-(trifluoromethoxy)-3,4,4a,9b-tetrahydrobenzofuro[3,2-b]pyridin-1(2H)-yl)methanone]			≤ 1	< 100	115
Cc1ncn2c1c(N)nc1cnc(C(=O)N3CCC4(CC4)[C@@H]4Oc5cc(OC(F)(F)F)ccc5[C@@H]43)cc12 [Ff-617, (4-amino-3-methylimidazo[1,5-a]pyrido[3,4-e]pyrazin-8-yl)((4aS,9bS)-7-(trifluoromethoxy)-2,3,4a,9b-tetrahydro-1H-spiro[benzofuro[3,2-b]pyridine-4,1′-cyclopropan]-1-yl)methanone]			1 to 5	< 100	274
Nc1nc2cc(F)c(C(=O)N3CCC4(CCCc5ccccc54)C3)cc2n2cncc12 (stereo not drawn) [Ff-669, (4-amino-7-fluoroimidazo[1,5-a]quinoxalin-8-yl)(3,4-dihydro-2H-spiro[naphthalene-1,3′-pyrrolidin]-1′-yl)methanone]			1 to 5	100 to 1000	485
CN(C(=O)c1cc2c(cc1F)nc(N)c1cncn12)[C@@H]1COc2cc(-n3cnc(C(F)(F)F)n3)ccc21 [Ff-324, (S)-4-amino-7-fluoro-N-methyl-N-(6-(3-(trifluoromethyl)-1H-1,2,4-triazol-1-yl)-2,3-dihydrobenzofuran-3-yl)imidazo[1,5-a]quinoxaline-8-carboxamide]	< 100	53	1 to 5		
Cc1ncn2c(N)nc3ccc(C(=O)N(C)[C@@H]4COc5cc(C(F)(F)F)ccc54)cc3c12 [Fg-11, (S)-5-amino-N,1-dimethyl-N-(6-(trifluoromethyl)-2,3-dihydrobenzofuran-3-yl)imidazo[1,5-c]quinazoline-9-carboxamide]			> 5	100 to 1000	225
Cc1nc(C)n2c1c(N)nc1ccc(C(=O)N(C)[C@@H]3COc4cc(C(F)(F)F)ccc43)cc12 [Fg-18, (S)-4-amino-N,1,3-trimethyl-N-(6-(trifluoromethyl)-2,3-dihydrobenzofuran-3-yl)imidazo[1,5-a]quinoxaline-8-carboxamide]			1 to 5	100 to 1000	275
Nc1nc2cc(F)c(C(=O)N3CC4CC(C3)c3ccccc34)cc2n2cncc12 [Ff-62, (4-amino-7-fluoroimidazo[1,5-a]quinoxalin-8-yl)(1,2,4,5-tetrahydro-3H-1,5-methanobenzo[d]azepin-3-yl)methanone]	> 1000	178	> 5		
CC(C)N(Cc1ccc(C(F)(F)F)cn1)C(=O)c1cc2c(cc1F)nc(N)c1cncn12 [Ff-7, 4-amino-7-fluoro-N-isopropyl-N-((5-(trifluoromethyl)pyridin-2-yl)methyl)imidazo[1,5-a]quinoxaline-8-carboxamide]	< 100	33	≤ 1		
